{
  "source": "patent US20080004253A1",
  "about": "“Thiazolopyrimidine modulators of TRPV1” (priority 2006, published 2008)",
  "key": {"rat TRPV1": {"target": "T1, rat TRPV1 (Rattus norvegicus, UniProt O35433)", "T1 construct": "expressed in transfected cells; host or cells: HEK293 (rTRPV1/HEK293), geneticin selection", "T1 sequence (O35433 whole entry)": "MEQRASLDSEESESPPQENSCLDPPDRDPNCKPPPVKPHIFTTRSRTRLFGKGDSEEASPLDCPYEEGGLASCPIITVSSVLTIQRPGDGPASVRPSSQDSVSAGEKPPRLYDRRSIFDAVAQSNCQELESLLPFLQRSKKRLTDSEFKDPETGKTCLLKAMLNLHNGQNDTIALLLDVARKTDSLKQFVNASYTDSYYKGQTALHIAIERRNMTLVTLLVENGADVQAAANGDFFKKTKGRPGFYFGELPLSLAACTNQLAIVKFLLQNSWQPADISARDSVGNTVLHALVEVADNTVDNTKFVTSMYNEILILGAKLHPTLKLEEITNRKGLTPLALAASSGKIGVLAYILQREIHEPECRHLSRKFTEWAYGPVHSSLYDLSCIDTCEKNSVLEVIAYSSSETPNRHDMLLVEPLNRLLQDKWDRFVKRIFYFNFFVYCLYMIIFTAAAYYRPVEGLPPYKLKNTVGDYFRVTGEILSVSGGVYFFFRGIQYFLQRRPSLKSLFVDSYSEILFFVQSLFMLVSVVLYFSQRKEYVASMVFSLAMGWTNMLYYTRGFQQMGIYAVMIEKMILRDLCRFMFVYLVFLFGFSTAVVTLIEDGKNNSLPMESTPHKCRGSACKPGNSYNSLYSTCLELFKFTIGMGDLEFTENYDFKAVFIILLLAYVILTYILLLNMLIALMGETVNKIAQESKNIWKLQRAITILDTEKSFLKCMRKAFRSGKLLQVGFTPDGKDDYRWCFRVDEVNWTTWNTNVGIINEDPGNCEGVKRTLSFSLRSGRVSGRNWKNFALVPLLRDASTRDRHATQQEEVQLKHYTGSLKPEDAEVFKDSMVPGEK", "test": "Functional assay: block of capsaicin-induced Ca2+ influx, rat assay (rTRPV1/HEK293, FLIPR)", "assay_type": "cell-based", "conditions": "rTRPV1/HEK293 cells, capsaicin challenge, Fluo-3 fluorescence; mean; > value = solubility limit in assay medium", "summary_of_the_method": "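HEK293 cells expressing rat TRPV1, loaded with fluo3 and preincubated 30 min with compound in 20 μM Ca2+ buffer before capsaicin challenge. Block read as fluo3 fluorescence change over 100 s after agonist, 3-fold series from 10 μM in duplicate. IC50 by non-linear regression, mean values.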"}, "human TRPV1": {"target": "T2, human TRPV1 (Homo sapiens, UniProt Q8NER1)", "T2 construct": "expressed in transfected cells; host or cells: HEK293 (hTRPV1/HEK293), zeocin selection", "T2 sequence (Q8NER1 whole entry)": "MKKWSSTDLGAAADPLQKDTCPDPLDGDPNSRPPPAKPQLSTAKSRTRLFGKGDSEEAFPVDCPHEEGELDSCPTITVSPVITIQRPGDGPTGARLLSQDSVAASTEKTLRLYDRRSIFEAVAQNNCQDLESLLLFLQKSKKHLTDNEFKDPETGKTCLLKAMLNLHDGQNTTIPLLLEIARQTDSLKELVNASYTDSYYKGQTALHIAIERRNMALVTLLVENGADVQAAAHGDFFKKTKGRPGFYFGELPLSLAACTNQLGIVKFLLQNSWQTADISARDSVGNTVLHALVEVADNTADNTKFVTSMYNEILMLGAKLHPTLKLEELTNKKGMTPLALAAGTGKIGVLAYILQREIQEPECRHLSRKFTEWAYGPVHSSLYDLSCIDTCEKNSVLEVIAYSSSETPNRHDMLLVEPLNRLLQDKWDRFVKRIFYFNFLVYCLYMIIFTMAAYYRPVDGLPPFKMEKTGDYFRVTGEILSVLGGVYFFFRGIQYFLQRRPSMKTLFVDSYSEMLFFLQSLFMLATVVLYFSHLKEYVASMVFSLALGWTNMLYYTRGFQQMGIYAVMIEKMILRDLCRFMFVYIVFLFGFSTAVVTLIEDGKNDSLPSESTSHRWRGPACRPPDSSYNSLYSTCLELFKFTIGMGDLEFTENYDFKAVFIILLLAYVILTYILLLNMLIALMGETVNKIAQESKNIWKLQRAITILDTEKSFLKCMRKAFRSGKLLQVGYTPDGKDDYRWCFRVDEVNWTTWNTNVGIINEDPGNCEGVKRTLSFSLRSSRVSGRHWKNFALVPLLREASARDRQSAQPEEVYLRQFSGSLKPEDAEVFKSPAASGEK", "test": "Functional assay: block of capsaicin-induced Ca2+ influx, human assay (hTRPV1/HEK293, FLIPR)", "assay_type": "cell-based", "conditions": "hTRPV1/HEK293 cells, 150 nM capsaicin challenge, Fluo-3 fluorescence; mean; > value = solubility limit in assay medium", "summary_of_the_method": "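HEK293 cells stably expressing human TRPV1, fluo3-loaded, preincubated 30 min with compound (serial 3-fold dilutions from 10 μM, duplicate) in 20 μM Ca2+ buffer. Capsaicin response taken as fluo3 fluorescence change before vs 100 s after agonist; IC50 by non-linear regression, mean values; free base or TFA salt.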"}},
  "data": [
    {"smiles": "CC1CCCN1c1nc(Nc2ccc(S(C)(=O)=O)cc2)c2nc(Nc3c(Cl)cccc3Cl)sc2n1", "note": "(racemic) [Example 117, (racemic)-N^2-(2,6-Dichloro-phenyl)-N^7-(4-methanesulfonyl-phenyl)-5-(2-methyl-pyrrolidin-1-yl)-thiazolo[5,4-d]pyrimidine-2,7-diamine]", "values": [
      {"measurement": "IC50", "setting": "rat TRPV1", "value": 7, "unit": "nM"},
      {"measurement": "IC50", "setting": "human TRPV1", "value": 50, "unit": "nM"}
    ]}
  ]
}
